# Measured values: patent US20240239787A1, “COMPOUNDS FOR USE IN THE TREATMENT OF CANCER” (Nanyang Technological University, priority 2021, published 2024)
# Key:
# [1] = system: broad range of enzymes and chemical agents; experiment: Selectivity of JW4 with or without NADH (LC-MS); format: biochemical; conditions: JW4 10 μM, reagents 0-40 μg/mL, 120 min
# Procedure: A MS vial was sequentially added JW4 (10 μM), a reagent selected from sodium chloride, calcium chloride, ascorbic acid, glucose, cysteine, furin, CtsB, monoamine oxidase A (MAO-A) and monoamine oxidase B (MAO-B) (concentration range of 0-40 μg/mL), with or without the addition of NADH (0.5 mM) and the mixture was dissolved in PBS (pH 7.4, 10 mM) to a final volume of 500 μL. The mixture in the vial was vortexed and incubated at 37° C. for 120 min before it was subject to structural mass analysis.
# BRD4 [2] = molecular target: T1, BRD4 (Homo sapiens, UniProt O60885); experiment: BRD4 degradation by Western blot in HEK293T cells; format: cell-based; parameters: endogenous in cells; host or cells: HEK293T; conditions: 12 h
# Description: The effective production of BRD4 heterobifunctional degraders in solution allowed us to investigate the function of ENCTAC components in biological applications. […] Particularly, NTR responsive JW4, the pomalidomide-containing compound that can target CRBN and is a universal E3 ligase, is expected to be uncaged through NTR-assisted nitro and GSH reduction once it enters the hypoxic cells. The exposed cysteine groups are then readily linked with the CBT moieties on the JQ1-CBT fragments via a specific bioorthogonal click reaction. Besides, the JQ1 warheads are presumed to be simultaneously bound to the BRD4 proteins, thus forming bifunctional degraders in-situ for localized proteolysis (FIG. 17a). […] As proof-of-concept, the control molecule J266 that can only respond to GSH but not NTR, was first introduced into the HEK293T cell line (for 6 h), with subsequent addition of the JQ1-CBT (for 12 h). After intracellular formation of the click-J252, the proteolysis process was observed by western blot analysis.
# HeLa, Hek293T, MDA-MB-231, 4T1 or B16F10 cells (1.5×10^6 cells/mL) were treated with J266 (10 μM) for 6 h before incubating with JQ1-CBT at the indicated concentrations and time. This entire incubation was performed in normoxia condition. […] The supernatant was collected and the protein concentration was analyzed by NanoDrop™ 2000/2000c Spectrophotometers. […]
# NTR = NTR enzymatic cleavage in vitro (LC-MS); format: biochemical
# Description: Upon the exertion of external enzymatic stimuli, the NTR-responsive moiety undergoes self-immolation to unleash the amino group. Simultaneously, the presence of a reduction agent cleaves the -StBu group to liberate thiol group (—SH), creating the cleaved-J266. The presence of a readily reactive amino group and thiol group on cleaved-J266, with the co-insertion of JQ1-CBT would spontaneously induce the CBT-cysteine orthogonal click conjugation, shaping the luciferin-based structure in click-J252 for targeted protein disruption (FIG. 12a). To validate the kinetics of ENCTAC formation, JW4 was tested against the presence of ntr enzyme accompanied by the co-factor, NADH, at 37° C. across a range of time settings in LC-MS system. The formation of J252 in the presence of J266 and JQ1-CBT was also evaluated by LC-MS.
# A MS vial was sequentially added JW4 (10 μM), nicotinamide adenine dinucleotide (NADH, 0.5 mM) and NTR (40 μg/mL), and the mixture was dissolved in PBS (pH 7.4, 10 mM) to a total volume of 500 μL. The mixture in the vial was vortexed and incubated at 37° C. with varying time control from 0-240 min. Structural mass analysis was performed to observe any molecular mass alteration.
# A MS vial was sequentially added JW4 (10 μM) or J268 ([…]), NADH (0.5 mM) and NTR (concentration range of 0-40 μg/mL), and the mixture was dissolved in PBS (pH 7.4, 10 mM) to a final volume of 500 μL. The mixture in the vial was vortexed and incubated at 37° C. for 120 min before subjecting to structural mass analysis.
# HIF-1α = HIF-1α level in hypoxic Hela cells (immunofluorescence imaging, Western blot); format: cell-based, human
# Procedure: (§1) HeLa, Hek293T, MDA-MB-231, 4T1 or B16F10 cells (1.5×10^6 cells/mL) were treated with J266 (10 μM) for 6 h before incubating with JQ1-CBT at the indicated concentrations and time. This entire incubation was performed in normoxia condition. For NTR-moiety caged JW4, the cells were treated with JW4 (10 μM) 6 h prior to the addition of JQ1-CBT for a subsequent 12 h, and was performed entirely under hypoxic condition. Comparison of the downstream effect between the controls and drug-treated cells were completely executed in hypoxic condition. To work up, the cells were washed with cold PBS (pH 7.4) twice, and lysed with RIPA buffer supplemented with protease inhibitor cocktail and phosphatase inhibitor cocktail for 10 min at 4° C. Then, the lysed cells were collected and centrifuged at 13,500 rpm for 20 min at 4° C. The supernatant was collected and the protein concentration was analyzed by NanoDrop™ 2000/2000c Spectrophotometers. The lysate volumes were fine-tuned and loaded onto a Mini-PROTEAN® TGX™ 4-20% Precast Gel and was separated by SDS-PAGE. Then, the gel was transferred onto a PVDF membrane (100 V, 90 min, 4° C.), washed with TBS-T twice, and blocked with 1% BSA for 1 h at r.t. Next, the membrane was incubated with primary antibody overnight at 4° C., washed thrice with TBS-T, followed by incubation with goat anti-rabbit IgG (H+L) Secondary Antibody, HRP for 1 h. The membrane was supplemented with Radiance Q chemiluminescent ECL substrate and visualized using Amersham™ ImageQuant™ 800 biomolecular imager. B-Tubulin was used as the internal control.
# Hela cells were plated at a density of 8×10^4 cells/mL in each well of the eight-well ibidi dishes before experiment. To sustain the hypoxia-induced factor throughout the drug treatment process, drug incubation was performed entirely in hypoxic chamber. […] The fluorescence of the alleviated HIF-1α expression upon drug treatment was visualized with Carl Zeiss LSM 800 microscopes (Hoechst 33258: Ex=405 nm, Em=460/50 nm; Alexa Fluor 488: Ex=488 nm, Em=515/30 nm; Alexa Fluor 594: Ex=561 nm, Em=617/20 nm).
# zebrafish larvae = experiment: Vascularization of vhl mutant and wide type zebrafish larvae (confocal imaging); format: in vivo; conditions: vhl^hu2117 crosses, 10 μM; non-treatment approximately one quarter
# Procedure: Vasculature zebrafishes were obtained from natural crosses of the AB wild-type strain or vhl^+/hu2117 carriers on the fli1a:egfp^y1 transgenic background (which fluorescently marks the vasculature). JW4 and JQ1-CBT were dissolved in DMSO and the mixture was applied to embryos at equimolar concentration of 10 μM, with J252 (10 μM) and JQ1 (10 μM) used for the control experiments. […] The vascular plexus was imaged on a Zeiss LSM800 confocal microscope. Green: blood vessel tracker, .ex: 488 nm, .em: 520/30 nm; red: . ex: 564 nm, .em: 610/30 nm.
# zebrafish embryos = experiment: Yolk extension phenotype of zebrafish embryos; format: in vivo; conditions: 50 μM, hypoxia-normoxia alternating 8 h
# Procedure: Wide type zebrafish embryos at 12 hpf was incubated with J252 (50 μM), JW4 (50 μM), or the mixture of JW4 (50 μM) and JQ1-CBT (50 μM) in hypoxia-normoxia alternative condition for 8 h at 28° C. After that, the embryos were further incubated in normoxia condition at 28° C. for 16 h before the yolk extension phenotypes were visualized under Zeiss LSM800 confocal microscope using bright-field channel. Embryos with JW4+JQ1-CBT treatment under normoxia were used as the controls.
# BRD4 [3] = molecular target: T1, BRD4; experiment: Hook effect: BRD4 degradation at extended degrader concentrations under hypoxia; format: cell-based; parameters: endogenous in cells
# Procedure: as §1, with “The membrane was supplemented with Radiance Q chemiluminescent ECL substrate and visualized using Amersham™ ImageQuant™ 800 biomolecular imager. B-Tubulin was used as the internal control.” left out
# CK2α [4] = molecular target: T2, CK2α (Homo sapiens, UniProt P68400); experiment: Immunofluorescence staining of CK2α degradation over time; format: cell-based; parameters: Hek293T, MCF-7, and U205 cells were chosen as they can express different levels of CK2α protein; endogenous in cells; host or cells: HEK293T, MCF-7, U2OS; conditions: 0.1 or 1 μM, prolonged time (up to 20 h); Hek293T, MCF-7, U205 cells
# Procedure: After the synthesis of T44 and T120 in Examples 1 and 2, their properties for protein degradation were examined. Hek293T, MCF-7, and U205 cells were chosen as they can express different levels of CK2α protein.
# […] Upon washing with PBS buffer thrice, the protein degradation was examined by immunofluorescence staining.
# Each group of cells with density of 5×10^4 cells in each well of 8-well ibidi-dishes was treated with T120 or T44 at different concentration (0.1 μM or 1 μM) and time (0 h, 6 h, 18 h or 30 h). After treatment, the cells were fixed with 4% paraformaldehyde for 15 min, permeabilized with 0.25% Triton™ X-100 for 10 min and blocked with 5% BSA for 1 h at room temperature. The cells were then labelled with CK2α Rabbit polyclonal Antibody (Cell signalling, #2656) in 1% BSA and incubated for 3 h at r.t. Subsequently, Alexa Fluor 488-Goat Anti-Rabbit IgG secondary antibody was stained for 30 min at r.t. The nucleus was stained with Hoechst 33342 for 30 min at r.t. The degradation of CK2α protein was visualized with Carl Zeiss LSM 800 microscopes. (Hoechst 33342: Ex=405 nm, Em=460/50 nm; Alexa Fluor 488: Ex=488 nm, Em=515/30 nm).
# CK2α [5] = molecular target: T2, CK2α; experiment: Concentration-dependent test for CK2α degradation (immunofluorescence / Western blot); format: cell-based; conditions: 24 h
# Procedure: Based on the established method (From Merck), the lysates were loaded into the wells in a Mini-PROTEAN® TGX™ 4-20% Precast Gel and run for separation in 30 min under 200 V.
# Cell lines including HEK293T and MCF-7 was incubated with varied concentrations of T44 or T120 for 24 h. After that, the protein level was evaluated by the above immunofluorescence staining protocol. Alternatively, the protein level was evaluated by Western blot analysis. Particularly, The lysates of each group of cells were collected and centrifuged at 12,000×g for 20 min at 4° C. Protein levels in supernatants were determined using Nanodrop and equalized to the same concentration and boiled for 10 min with SDS-PAGE sample loading buffer before being separated using SDS-PAGE and transferred to the PVDF membrane. The membrane was then blocked with 5% BSA-TBST blocking buffer overnight at 4° C. Subsequently, CK2α Rabbit polyclonal Antibody (Cell signalling, #2656) was incubated overnight at 4° C. in 1% BSA-TBST buffer. After series of washing, the goat-anti rabbit IGG (H&L) secondary antibody was added and incubated for 1 h in 1% BSA-TBST. All signals were visualized using […] (Image quant 800) system.
# T2 sequence (P68400 whole entry): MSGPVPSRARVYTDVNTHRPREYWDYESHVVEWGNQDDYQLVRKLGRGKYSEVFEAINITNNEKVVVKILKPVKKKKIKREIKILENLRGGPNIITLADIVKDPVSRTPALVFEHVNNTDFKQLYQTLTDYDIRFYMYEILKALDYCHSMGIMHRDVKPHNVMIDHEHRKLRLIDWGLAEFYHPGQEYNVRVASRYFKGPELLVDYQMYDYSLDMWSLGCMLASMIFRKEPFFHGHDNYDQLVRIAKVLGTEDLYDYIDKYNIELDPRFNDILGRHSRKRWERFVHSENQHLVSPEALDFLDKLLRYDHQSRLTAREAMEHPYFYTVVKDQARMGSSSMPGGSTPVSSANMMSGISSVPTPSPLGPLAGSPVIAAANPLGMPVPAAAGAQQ
CK2α antibody fluorescence signal in cells after incubation (CK2α [4]),"CK2α degradation effect, concentration dependence (CK2α [5]; HEK293T and MCF-7 cells)",CK2α fluorescence change with different concentrations (CK2α [5]; MCF-7 cells),SMILES,cleavage by different components and enzymes [1],BRD4 degradation by independent treatment (alone) (BRD4 [2]),"NTR enzymatic uncaging (self-immolation) followed by LC-MS (NTR; 10 μM substrate, NTR 40 μg/mL, NADH, 37° C., span of 4 h)","Kcat of NTR uncaging (NTR; NTR, NADH 0.5 mM, PBS pH 7.4, 37° C.)","Km (NTR; NTR, NADH 0.5 mM, PBS pH 7.4, 37° C., read-out: Km of NTR uncaging)",HIF-1α protein level (HIF-1α),vascularized larvae (zebrafish larvae),yolk extension phenotype at 36 hpf (zebrafish embryos),BRD4 degradation level (BRD4 [3]; 50 μM),concentration at which decrease in efficiency of proteolysis started (hook effect) (BRD4 [3]; hypoxia)
–,–,–,"CC(C)(C)SSC[C@@H](NC(=O)OCc1ccc([N+](=O)[O-])cc1)C(=O)NCCOCCOCC(=O)Nc1cccc2c1C(=O)N(C1CCC(=O)NC1=O)C2=O (some centres unmarked) [JW4, Pomalidomide-PEG-NTR]",no obvious cleavage except for NTR+NADH,did not induce any degradation,near to completion,0.000262 s⁻¹,101 µM,did not induce HIF-1α elimination,–,–,–,–
–,–,–,Cc1sc2c(c1C)C(c1ccc(Cl)cc1)=N[C@@H](CC(=O)Oc1ccc3nc(C4N=C(C(=O)NCCOCCOCC(=O)Nc5cccc6c5C(=O)N(C5CCC(=O)NC5=O)C6=O)CS4)sc3c1)c1nnc(C)n1-2 (some centres unmarked) [J252],–,–,–,–,–,able to downregulate,22.5%,similarly less extension of yolk,around 20%,5 µM
decreased fluorescence signals,cell-dependent,no obvious fluorescence change,COc1cc(/C=N/n2c(SC)nnc2-c2ccc(OCCOCCOCCOCc3cn(CCOCC(=O)Nc4cccc5c4C(=O)N(C4CCC(=O)NC4=O)C5=O)nn3)cc2)c(Br)cc1O (centres unmarked) [T44],–,–,–,–,–,–,–,–,–,–
